Activity calls are given as the source filed them. The calls are words filed in the database; no cut-off is given here.
Columns and labels:
[1] = test system: A-427; assay: Antiproliferative activity against human A427 cells harboring K-Ras G12D mutant assessed as cell proliferation at 10 uM by CellTitre-Glo assay relative to control; type: functional; conditions: read-out: Activity
[2] = test system: A549; assay: Antiproliferative activity against human A549 cells harboring K-Ras G12C mutant assessed as cell proliferation at 10 to 30 uM by CellTitre-Glo assay; type: functional, cell-based
[3] = test system: A-427; assay: Antiproliferative activity against human A427 cells harboring K-Ras G12D mutant assessed as cell proliferation at 30 uM by CellTitre-Glo assay relative to control; type: functional; conditions: read-out: Activity

## CC[C@H](C)[C@@H]1NC(=O)[C@H](Cc2ccc(O)cc2)NC(=O)[C@H](CC(C)C)NC(=O)[C@@H]2CCCN2C(=O)[C@@H](NC(=O)[C@H](CCCNC(=N)N)NC(=O)[C@H](CCCNC(=N)N)NC(=O)[C@H](CCCNC(=N)N)NC(=O)[C@H](CCCNC(=N)N)NC(C)=O)CSCSC[C@@H](C(=O)N[C@@H](CCCNC(=N)N)C(=O)N[C@@H](CCCNC(=N)N)C(=O)N[C@@H](CCCNC(=N)N)C(=O)N[C@@H](CCCNC(=N)N)C(N)=O)NC(=O)[C@H](C(C)C)NC(=O)[C@@H]2CCCN2C(=O)[C@H](CC(=O)O)NC(=O)[C@H](Cc2ccc(O)cc2)NC(=O)[C@H](CO)NC1=O
[1]
  growth at 10 µM: 91%
[2]
  Activity: inactive
[3]
  growth at 30 µM: 69.9%
